Entries after “also recorded” stand apart in the source; their conditions may differ.
Columns and labels:
[1] = Urinary excretion of Z-endoxifen over a 24-hour collection; format: in vivo, human
Method: A 3-mL blood sample was collected in a K2 EDTA tube on day 1 of cycle 1 before drug administration and at the following times post-first dose: 0.5, 1, 2, 3, 4, 6, 8, and 24 hours. Samples were collected at the same time points on day 28 of cycle 1 for DL1-6 until a protocol amendment eliminated the requirement for these samples at the higher dose levels. Samples were wrapped in aluminum foil after collection to protect from light exposure. A 10-mL aliquot of urine was collected before agent administration on cycle 1 day 1, for 24 hours after dosing on day 1, and before drug administration on cycle 2 day 1; samples were refrigerated prior to analysis.
Plasma and urine concentrations of Z- and E-endoxifen were measured using a validated, post-column fluorescence derivatization HPLC assay. Non-compartmental pharmacokinetic parameters were calculated using WinNonlin version 7.0 (Pharsight Corp., Mountainview, CA, USA). A 2 μM Cmax target was established for day 28 plasma concentration. The amount of Z-endoxifen excreted in urine was measured over a 24-hour collection period.

[2] = tested on: gynecologic tumors, desmoid tumors, hormone receptor-positive solid tumors; test: Clinical outcome (RECIST 1.1 response, cycles on study); format: in vivo, human; settings: for prolonged disease stabilization: desmoid
Method: This study enrolled patients ≥ 18 years of age with gynecological tumors, desmoid tumors, histologically-documented HR+ (ER+/PR+, ER+/PR-, or ER-/PR+) breast cancer, or other solid tumors that were ER+ or PR+ by immunohistochemistry (any positive expression). […] All other patients must have progressed on at least one line of standard-of-care therapy.
Eye examinations were performed at baseline, every six months while on study, and if clinically indicated. CT scans were performed at baseline, and tumor response was assessed every 2 cycles (8 weeks; every 16 weeks for patients on study for more than 12 months) based on the Response Evaluation Criteria in Solid Tumors (RECIST) version 1.1 [39]. A confirmatory scan was performed after at least 4 weeks to confirm objective response.

[3] = tested on: ER+ metastatic breast cancer; parameters: method as in PMID 28854070; settings: cited from earlier work
[4] = patient 7, fallopian tube cancer

With `CC/C(=C(\c1ccc(O)cc1)c1ccc(OCCNC)cc1)c1ccccc1` [Z-endoxifen] the “amount excreted in the urine” value [1] was < 0.26 % of dose, the “mean number of cycles completed” value ([2]; 3 ER+/PR- breast cancer patients) was 3.0 ± 2.6 cycles and the “mean number of cycles completed” value ([2]; 6 ER+/PR+ breast cancer patients) was 6.7 ± 4.4 cycles. The “disease stabilizations of ≥ 6 cycles” value ([2]; 20 evaluable patients with gynecologic tumors (patients 20, 30, 31)) was 3 patients, the partial responses ([2]; 34 evaluable patients) was “Three patients had partial responses; also recorded: Three patients in this study experienced partial responses” and the “patients with stable disease ≥ 6 cycles” value ([2]; 34 evaluable patients) was 8 patients. For the same molecule, the “treatment cycles on study, average” value ([2]; 34 evaluable patients) was 7.2 cycles, the “treatment cycles on study, median” value ([2]; 34 evaluable patients) was 4 cycles and the “treatment cycles on study, range” value ([2]; 34 evaluable patients) was 1–62 cycles. For the same molecule, the “Clinical Benefit (partial response or stable disease for at least 6 cycles)” value (“Clinical Benefit” for short) ([2]; Breast cancer (n = 9)) was 4 patients, the “CBR (partial response or stable disease ≥ 6 cycles)” value ([2]; DL1 to DL5, 20 to 140 mg daily, 3/16 patients) was 18.8% and the “CBR (partial response or stable disease ≥ 6 cycles)” value ([2]; DL6 to DL8, 200 to 360 mg daily, 8/18 patients) was 44.4%. The “Clinical Benefit” value ([2]; Desmoid (n = 4)) was 3 patients, the “mean cycles completed on study” value ([2]; ER+ breast cancer) was 5.1 ± 4.4 cycles and the “mean cycles on study” value ([2]; ER+ ovarian cancer, 4 patients) was 4.0 ± 4.0 cycles. For the same molecule, the “Clinical Benefit” value ([2]; Fallopian tube cancer (n = 2)) was 1 patients, the “Clinical Benefit” value ([2]; Granulosa cell ovarian (n = 2)) was 0 patients and the “Clinical Benefit” value ([2]; Ovarian cancer (n = 9)) was 2 patients. The “Clinical Benefit” value ([2]; Total of Supplementary Table 1 (endometrial patient 31 not included)) was 10 patients, the “overall CBR (partial response or stable disease ≥ 6 cycles)” value ([2]; all dose levels) was 32.5% and the CBR ([2]; hormone receptor-positive breast cancer, 4/9 patients) was 44%. The clinical response [2, 4] was “partial response”, the cycles on study [2, 4] was 14 cycles and the clinical response ([2]; patient 23, desmoid fibromatosis, prior progression on tamoxifen) was “partial response”. The prolonged disease stabilization ([2]; patient 28 (DL7)) was 11 cycles, the stable disease duration ([2]; patient 31, endometrial cancer) was 7 cycles and the clinical response ([2]; patient 33 (DL8), breast cancer) was “partial response”. For the same molecule, the prolonged disease stabilization ([2]; patient 35 (DL8), prior progression on tamoxifen) was 24 cycles, the stable disease duration ([2]; patients 3, 10, and 21 (DL1, DL3, DL6), breast cancer) was no less than 6 cycles and the CBR ([2]; patients with desmoid tumors, 3/4 patients) was 75%. The CBR ([2]; patients with gynecologic malignancies, 4/20 patients) was 20%, the “mean cycles on study” value ([2]; undetermined ER status ovarian cancer, n = 5) was 2.0 ± 1.2 cycles and the “Plasma concentration on day 1” value ([3]; 160 mg dose, 38 patients with ER+ metastatic breast cancer) was 333 ng/mL. The “overall CBR” value ([3]; previous trial, highest dose 160 mg/day) was 26.3%.
